Patent US7405063B2, “Biooxidation capabilities of Candida sp” (Cognis Corporation, priority 2000, dated 2008)

Key:
C. tropicalis = test: Toxicity tests of additional substrates (absorbance at 600 nm); format: cell-based; details: for Absorbance at 600 nm: 24 hours, added without solvent
Protocol: Additional substrates were to be tested for bioconversion following a slightly different protocol than the one noted above in Example 3. Those substrates also had to be tested for toxicity similar to the test described in Example 2, to determine the highest concentration at which a substrate could be added to a culture broth without being toxic, inhibiting growth, or interfering with the bioconversion process. C. tropicalis was grown in the presence of the substrate at three different concentrations and growth was monitored spectrophotometrically. In contrast to Example 2, all test substrates were added directly to the culture medium without dissolving in solvent. The tests were completed as follows:
On the first day, H5343 was grown in YPD medium (25.0 ml seed culture) overnight on a rotary shaker at 30° C. and 250 rpm. The next day 1.0 ml of the seed culture was used to inoculate a new flask of 50 ml YPD. This culture was grown overnight on a rotary shaker at 30° C. and 250 rpm. […]
Two control flasks were each inoculated with H5343 in 25 ml YPD. All flasks were incubated on a rotary shaker at 30° C. and 250 rpm.
After 24 hours incubation, the absorbance at 600 nm of the test and control flask cultures was determined, using uninoculated YPD broth as blank. Cultures were diluted so that the OD^600 nm measured between 0.15 and 0.3.
For strongly inhibitory substrates, a concentration of 0.1-0.2% was chosen for the bioconversion tests.

[1] = tested on: C. tropicalis strain H5343; test: Toxicity tests of substrates (growth by absorbance at 600 nm, streak plates); format: cell-based; details: 48 h, 30° C., dilution in YPD 1:100
Protocol: The toxicity test used here was similar to that used for the solvents described in Example 1. The goal was to determine the highest concentration at which a substrate could be added to a culture broth without being toxic, inhibiting growth, or interfering with the bioconversion process. C. tropicalis strain H5343 was grown in the presence of the substrate at different concentrations and growth was monitored spectrophotometrically. In order to determine if the substrate was lethal or was simply inhibiting growth, the cultures were examined under the microscope and streak plates of YPD and LB agar were prepared. Contamination of the culture with an unwanted organism could also be detected using this approach.
6 ml was transferred to the first tube and 3 ml to the rest. 1% substrate was added to the first tube and then serially diluted to give concentrations from 1% to 0.015%. Since the last tube was initially empty, the concentration in the last two tubes was the same. […] As a growth-control one culture without substrate was inoculated.
To determine if contamination had occurred, each culture was examined under the microscope and streak plates of both YPD and LB were made from the 1% and the inoculated 0.015% tube.

[2] = substrate concentration 0.01563%
[3] = substrate concentration 0.0313%

## CCCCCCCCCCCCCCC(O)CO (stereo not drawn) [1,2-Hexadecanediol]
C. tropicalis; substrate concentration 0.1%
  Absorbance at 600 nm: 3.103
C. tropicalis; substrate concentration 0.5%
  Absorbance at 600 nm: 3.033
C. tropicalis; substrate concentration 1.0%
  Absorbance at 600 nm: 2.013

## C=CCCCCCCCCCCCCCC [1-Hexadecene]
C. tropicalis; substrate concentration 0.1%
  Absorbance at 600 nm: 38.99
C. tropicalis; substrate concentration 0.5%
  Absorbance at 600 nm: 35.33
C. tropicalis; substrate concentration 1.0%
  Absorbance at 600 nm: 37.93

## C=CCCCCCCCCCCCCCCCC [1-Octadecene]
C. tropicalis; substrate concentration 0.1%
  Absorbance at 600 nm: 34.93
C. tropicalis; substrate concentration 0.5%
  Absorbance at 600 nm: 36.33
C. tropicalis; substrate concentration 1.0%
  Absorbance at 600 nm: 34.7

## CCCCCCC(CO)CCCC (stereo not drawn) [2-Butyl-1-octanol]
C. tropicalis; substrate concentration 0.1%
  Absorbance at 600 nm: 10.53
C. tropicalis; substrate concentration 0.5%
  Absorbance at 600 nm: 8.973
C. tropicalis; substrate concentration 1.0%
  Absorbance at 600 nm: 6.213

## CCCCCCCCC(CCCCCC)C(=O)O (stereo not drawn) [2-Hexydecanoic acid, 2-hexyldecanoic acid]
C. tropicalis; substrate concentration 0.1%
  Absorbance at 600 nm: 27.73
C. tropicalis; substrate concentration 0.5%
  Absorbance at 600 nm: 35.33
C. tropicalis; substrate concentration 1.0%
  Absorbance at 600 nm: 41.53

## CCCCC(=O)C(C)C [2-Methyl-3-heptanone]
C. tropicalis; substrate concentration 0.06%
  Absorbance at 600 nm: 19.2
C. tropicalis; substrate concentration 0.3%
  Absorbance at 600 nm: 0.099
C. tropicalis; substrate concentration 0.6%
  Absorbance at 600 nm: 0.125

## CCCCCCC(C)O (stereo not drawn) [2-Octanol]
C. tropicalis; Phase II screening summary
  Toxic at (concentration): Toxic at 0.1%
C. tropicalis; substrate concentration 0.1%
  Absorbance at 600 nm: 0.250
C. tropicalis; substrate concentration 0.5%
  Absorbance at 600 nm: 0.235
C. tropicalis; substrate concentration 1.0%
  Absorbance at 600 nm: 0.285

## CCCCC(CC)C1OCCN1CCCC (stereo not drawn) [3-Butyl-(ethylpentyl)oxazolidine, 3-Butyl-2(1-ethylpentyl)oxazolidine]
C. tropicalis; substrate concentration 0.06%
  Absorbance at 600 nm: 12.5
C. tropicalis; substrate concentration 0.3%
  Absorbance at 600 nm: 0.245
C. tropicalis; substrate concentration 0.6%
  Absorbance at 600 nm: 1.18

## CCCCCCc1ccsc1 [3-Hexylthiophene]
C. tropicalis; substrate concentration 0.1%
  Absorbance at 600 nm: 0.933
C. tropicalis; substrate concentration 0.5%
  Absorbance at 600 nm: 1.033
C. tropicalis; substrate concentration 1.0%
  Absorbance at 600 nm: 1.223

## CCCCC1CCCCC1 [Butylcyclohexane]
C. tropicalis; substrate concentration 0.1%
  Absorbance at 600 nm: 22.03
C. tropicalis; substrate concentration 0.5%
  Absorbance at 600 nm: 21.13
C. tropicalis; substrate concentration 1.0%
  Absorbance at 600 nm: 20.33

## CCCCC(C(=O)O)C(=O)O [Butylmalonic Acid]
C. tropicalis; substrate concentration 0.1%
  Absorbance at 600 nm: 27.43
C. tropicalis; substrate concentration 0.5%
  Absorbance at 600 nm: 27.13
C. tropicalis; substrate concentration 1.0%
  Absorbance at 600 nm: 8.53

## CCCC[S+]([O-])CCCC [Butylsulfoxide, dibutylsulfoxide]
C. tropicalis; substrate concentration 0.1%
  Absorbance at 600 nm: 15.63
C. tropicalis; substrate concentration 0.5%
  Absorbance at 600 nm: 11.37
C. tropicalis; substrate concentration 1.0%
  Absorbance at 600 nm: 5.81

## C=COCCCCCCCCCCCC [Dodecylvinylether]
C. tropicalis; substrate concentration 0.1%
  Absorbance at 600 nm: 20.43
C. tropicalis; substrate concentration 0.5%
  Absorbance at 600 nm: 12.63
C. tropicalis; substrate concentration 1.0%
  Absorbance at 600 nm: 7.33

## CCC1CCCCC1 [Ethylcyclohexane]
C. tropicalis; substrate concentration 0.06%
  Absorbance at 600 nm: 9.45
C. tropicalis; substrate concentration 0.3%
  Absorbance at 600 nm: 2.03
C. tropicalis; substrate concentration 0.6%
  Absorbance at 600 nm: 16.5

## CCCCCCOCCCCCC [Hexyl Ether, Dihexyl Ether]
C. tropicalis; substrate concentration 0.1%
  Absorbance at 600 nm: 12.85
C. tropicalis; substrate concentration 0.5%
  Absorbance at 600 nm: 13.21
C. tropicalis; substrate concentration 1.0%
  Absorbance at 600 nm: 3.33

## C=C[C@](C)(O)CC[C@@H]1[C@@]2(C)CCCC(C)(C)[C@@H]2CC[C@@]1(C)O [Indu-Extrakt-sclareol, sclareol]
[1]; [2]
  ABS 600.0 nm: 0.083
[1]; [3]
  ABS 600.0 nm: 0.100
[1]; substrate concentration 0.063%
  ABS 600.0 nm: 0.157
[1]; substrate concentration 0.13%
  ABS 600.0 nm: 0.106
[1]; substrate concentration 0.25%
  ABS 600.0 nm: 0.110
[1]; substrate concentration 0.5%
  ABS 600.0 nm: 0.092
[1]; substrate concentration 1%
  ABS 600.0 nm: 0.083

## C=C(C)[C@H]1CC=C(C)CC1 [R(+) limonene]
[1]; [2]
  ABS 600.0 nm: 0.123
[1]; [3]
  ABS 600.0 nm: 0.117
[1]; substrate concentration 0.063%
  ABS 600.0 nm: 0.106
[1]; substrate concentration 0.13%
  ABS 600.0 nm: 0.007
[1]; substrate concentration 0.25%
  ABS 600.0 nm: 0.000
[1]; substrate concentration 0.5%
  ABS 600.0 nm: 0.000
[1]; substrate concentration 1%
  ABS 600.0 nm: 0.000

## C=C(C)[C@@H]1CC=C(C)CC1 [S(−) limonene]
[1]; [2]
  ABS 600.0 nm: 0.104
[1]; [3]
  ABS 600.0 nm: 0.094
[1]; substrate concentration 0.063%
  ABS 600.0 nm: 0.011
[1]; substrate concentration 0.13%
  ABS 600.0 nm: 0.002
[1]; substrate concentration 0.25%
  ABS 600.0 nm: 0.000
[1]; substrate concentration 0.5%
  ABS 600.0 nm: 0.002
[1]; substrate concentration 1%
  ABS 600.0 nm: 0.002

## C/C=C/CCCCCC [trans-2-nonene]
[1]; [2]
  ABS 600.0 nm: 0.112
[1]; [3]
  ABS 600.0 nm: 0.100
[1]; substrate concentration 0.063%
  ABS 600.0 nm: 0.105
[1]; substrate concentration 0.13%
  ABS 600.0 nm: 0.066
[1]; substrate concentration 0.25%
  ABS 600.0 nm: 0.000
[1]; substrate concentration 0.5%
  ABS 600.0 nm: 0.000
[1]; substrate concentration 1%
  ABS 600.0 nm: 0.000

## CCCCCC/C=C/CCCCCC [trans-7-tetradecene]
[1]; [2]
  ABS 600.0 nm: 0.117
[1]; [3]
  ABS 600.0 nm: 0.106
[1]; substrate concentration 0.063%
  ABS 600.0 nm: 0.112
[1]; substrate concentration 0.13%
  ABS 600.0 nm: 0.104
[1]; substrate concentration 0.25%
  ABS 600.0 nm: 0.103
[1]; substrate concentration 0.5%
  ABS 600.0 nm: 0.107
[1]; substrate concentration 1%
  ABS 600.0 nm: 0.095
